Assay results as given in patent US20220152154A1, “GROWTH DIFFERENTIATION FACTOR 15 COMBINATION THERAPY” (Amgen Inc., priority 2019, published 2022).

Experiments:
[1] = Food intake measured three consecutive days per week; type: in vivo; parameters: key: ns: not significant; *: p < 0.05; **: p < 0.005; ***: p < 0.001; ****: p < 0.0001; conditions: male C57Bl/6 DIO mice, 2-way ANOVA with Dunnett's analysis
Method: (§1) Male C57Bl/6 DIO mice, 19-20 weeks old (13-14 weeks on high fat diet) at beginning of dosing, were placed into the following treatment groups: Group A—Vehicle, in which the animals were administered vehicle weekly; Group B—Dulaglutide, in which the animals were administered 0.1 mg/kg (2 nmol/kg) of dulaglutide twice per week; Group C—GIPR Ab, in which the animals were administered 5 mg/kg (33 nmol/kg) of antibody 2.63.1 (having a light and heavy chain sequence of SEQ ID NOs: 105 and 106, respectively) weekly and vehicle weekly (the latter being on the alternate dulaglutide dosing day); Group D—GDF15, in which the animals were administered 0.125 mg/kg (1 nmol/kg) of FcΔ10(−)-(G4S)4-GDF15 (SEQ ID NO: 39) (along with its heterodimerization partner, FcΔ10(+,K) (SEQ ID NO: 32)) weekly and vehicle weekly (the latter on the alternate dulaglutide dosing day); Group E—GDF15+Dulaglutide, in which the animals were administered 0.125 mg/kg (1 nmol/kg) of FcΔ10(−)-(G4S)4-GDF15) (along with its heterodimerization partner, FcΔ10(+,K)) weekly and 0.1 mg/kg (2 nmol/kg) of dulaglutide twice per week; Group F—GDF15+GIPR Ab, in which the animals were administered 0.125 mg/kg (1 nmol/kg) of FcΔ10(−)-(G4S)4-GDF15 (along with its heterodimerization partner, FcΔ10(+,K)) weekly and 5 mg/kg (33 nmol/kg) of antibody 2.63.1 weekly. The animals were dosed for 5 weeks with through subcutaneous injection.

[2] = Body weight change in DIO mice treated for 5 weeks; type: in vivo; parameters: key to Significance of Body Weight Change: ns: not significant; *: p < 0.05; **: p < 0.005; ***: p < 0.001; ****: p < 0.0001; conditions: subcutaneous; for Significance of Body Weight Change: male C57Bl/6 DIO mice, 2-way ANOVA with Dunnett's analysis
Method: as §1
Body weight was measured twice per week.

Substance: dulaglutide [reference compound]
- Significance of Food Intake Assay ([1]; D2): ns
- Significance of Food Intake Assay ([1]; D8): ns
- Significance of Food Intake Assay ([1]; D9): ns
- Significance of Food Intake Assay ([1]; D10): ns
- Significance of Food Intake Assay ([1]; D15): ns
- Significance of Food Intake Assay ([1]; D16): ns
- Significance of Food Intake Assay ([1]; D17): * (p < 0.05)
- Significance of Food Intake Assay ([1]; D22): **** (p < 0.0001)
- Significance of Food Intake Assay ([1]; D23): ns
- Significance of Food Intake Assay ([1]; D24): ns
- Significance of Food Intake Assay ([1]; D29): ns
- Significance of Food Intake Assay ([1]; D30): ns
- Significance of Food Intake Assay ([1]; D31): ns
- Significance of Body Weight Change ([2]; D0): ns
- Significance of Body Weight Change ([2]; D3): ns
- Significance of Body Weight Change ([2]; D7): ns
- Significance of Body Weight Change ([2]; D10): ** (p < 0.005)
- Significance of Body Weight Change ([2]; D14): ** (p < 0.005)
- Significance of Body Weight Change ([2]; D17): **** (p < 0.0001)
- Significance of Body Weight Change ([2]; D21): *** (p < 0.001)
- Significance of Body Weight Change ([2]; D31): *** (p < 0.001)
- Significance of Body Weight Change ([2]; D35): *** (p < 0.001)
- Significance of Body Weight Change ([2]; D-4): ns
- change in body weight ([2]; five weeks after treatment, DIO mice): −1.96%
